# Results published in BindingDB's records for doi:10.1016/s0960-894x(00)00026-3 (Universit&#224, 2000).
# pKi: −log10 of the molar value.
# Test: Inhibition of Clostridium histolyticum collagenase using a linear regression program
row,SMILES,pKi
1,"CC(C(=O)NO)N(Cc1ccc([N+](=O)[O-])cc1)S(=O)(=O)C(F)(F)C(F)(F)C(F)(F)C(F)(F)F (stereo not given) [2-(N-(4-nitrobenzyl)-2,2,12,12,15,15,18,18,18-nonafluorobutan-2-ylsulfonamido)-N-hydroxypropanamide]",4.96
2,"CC(C(=O)NO)N(Cc1ccc([N+](=O)[O-])cc1)C(=O)Nc1ccc(F)cc1F (stereo not given) [2-[3-(2,4-Difluoro-phenyl)-1-(4-nitro-benzyl)-ureido]-N-hydroxy-propionamide]",4.82
3,"CC(C(=O)O)N(Cc1ccc([N+](=O)[O-])cc1)C(=O)Nc1ccc(F)cc1F (stereo not given) [2-[3-(2,4-Difluoro-phenyl)-1-(4-nitro-benzyl)-ureido]-propionic acid]",5.21
4,"CC(C(=O)NO)N(Cc1ccc([N+](=O)[O-])cc1)C(=O)Nc1ccc(Cl)c(Cl)c1 (stereo not given) [2-[3-(3,4-Dichloro-phenyl)-1-(4-nitro-benzyl)-ureido]-N-hydroxy-propionamide]",4.89
5,"CC(C(=O)O)N(Cc1ccc([N+](=O)[O-])cc1)C(=O)Nc1ccc(Cl)c(Cl)c1 (stereo not given) [2-[3-(3,4-Dichloro-phenyl)-1-(4-nitro-benzyl)-ureido]-propionic acid]",5.30
6,CC(C(=O)NO)N(Cc1ccc([N+](=O)[O-])cc1)C(=O)Nc1cccc(Cl)c1 (stereo not given) [2-[3-(3-Chloro-phenyl)-1-(4-nitro-benzyl)-ureido]-N-hydroxy-propionamide],4.85
7,CC(C(=O)O)N(Cc1ccc([N+](=O)[O-])cc1)C(=O)Nc1cccc(Cl)c1 (stereo not given) [2-[3-(3-Chloro-phenyl)-1-(4-nitro-benzyl)-ureido]-propionic acid],5.21
8,CC(C(=O)NO)N(Cc1ccc([N+](=O)[O-])cc1)C(=O)Nc1ccc(Cl)cc1 (stereo not given) [2-[3-(4-Chloro-phenyl)-1-(4-nitro-benzyl)-ureido]-N-hydroxy-propionamide],4.74
9,CC(C(=O)O)N(Cc1ccc([N+](=O)[O-])cc1)C(=O)Nc1ccc(Cl)cc1 (stereo not given) [2-[3-(4-Chloro-phenyl)-1-(4-nitro-benzyl)-ureido]-propionic acid],5.19
10,CC(C(=O)NO)N(Cc1ccc([N+](=O)[O-])cc1)C(=O)Nc1ccc(F)cc1 (stereo not given) [2-[3-(4-Fluoro-phenyl)-1-(4-nitro-benzyl)-ureido]-N-hydroxy-propionamide],4.92
11,CC(C(=O)O)N(Cc1ccc([N+](=O)[O-])cc1)C(=O)Nc1ccc(F)cc1 (stereo not given) [2-[3-(4-Fluoro-phenyl)-1-(4-nitro-benzyl)-ureido]-propionic acid],5.27
12,CC(C(=O)NO)N(Cc1ccc([N+](=O)[O-])cc1)C(=S)NC(=O)c1ccccc1 (stereo not given) [2-[3-Benzoyl-1-(4-nitro-benzyl)-thioureido]-N-hydroxy-propionamide],5.22
13,CC(C(=O)O)N(Cc1ccc([N+](=O)[O-])cc1)C(=S)NC(=O)c1ccccc1 (stereo not given) [2-[3-Benzoyl-1-(4-nitro-benzyl)-thioureido]-propionic acid],6.05
14,CC(C(=O)O)N(Cc1ccc([N+](=O)[O-])cc1)C(=O)Nc1cccc2ccccc12 (stereo not given) [2-[3-Naphthalen-1-yl-1-(4-nitro-benzyl)-ureido]-propionic acid],5.34
15,"CC(C(=O)NO)N(Cc1ccc([N+](=O)[O-])cc1)Sc1ccc([N+](=O)[O-])cc1[N+](=O)[O-] (stereo not given) [2-[(2,4-Dinitro-phenylsulfanyl)-(4-nitro-benzyl)-amino]-N-hydroxy-propionamide]",5.05
16,"CC(C(=O)O)N(Cc1ccc([N+](=O)[O-])cc1)Sc1ccc([N+](=O)[O-])cc1[N+](=O)[O-] (stereo not given) [2-[(2,4-Dinitro-phenylsulfanyl)-(4-nitro-benzyl)-amino]-propionic acid]",5.29
17,"CC(C(=O)NO)N(Cc1ccc([N+](=O)[O-])cc1)S(=O)(=O)c1cc(Cl)ccc1Cl (stereo not given) [2-[(2,5-Dichloro-benzenesulfonyl)-(4-nitro-benzyl)-amino]-N-hydroxy-propionamide]",4.89
18,"CC(C(=O)O)N(Cc1ccc([N+](=O)[O-])cc1)S(=O)(=O)c1cc(Cl)ccc1Cl (stereo not given) [2-[(2,5-Dichloro-benzenesulfonyl)-(4-nitro-benzyl)-amino]-propionic acid]",5.44
19,CC(C(=O)O)N(Cc1ccc([N+](=O)[O-])cc1)S(=O)(=O)c1ccccc1[N+](=O)[O-] (stereo not given) [2-[(2-Nitro-benzenesulfonyl)-(4-nitro-benzyl)-amino]-propionic acid],5.32
20,"CC(C(=O)NO)N(Cc1ccc([N+](=O)[O-])cc1)S(=O)(=O)c1cc(Cl)cc(Cl)c1O (stereo not given) [2-[(3,5-Dichloro-2-hydroxy-benzenesulfonyl)-(4-nitro-benzyl)-amino]-N-hydroxy-propionamide]",4.92
21,"CC(C(=O)O)N(Cc1ccc([N+](=O)[O-])cc1)S(=O)(=O)c1cc(Cl)cc(Cl)c1O (stereo not given) [2-[(3,5-Dichloro-2-hydroxy-benzenesulfonyl)-(4-nitro-benzyl)-amino]-propionic acid]",5.60
22,CC(C(=O)O)N(Cc1ccc([N+](=O)[O-])cc1)S(=O)(=O)c1ccc([N+](=O)[O-])c(Cl)c1 (stereo not given) [2-[(3-Chloro-4-nitro-benzenesulfonyl)-(4-nitro-benzyl)-amino]-propionic acid],5.48
23,CC(C(=O)O)N(Cc1ccc([N+](=O)[O-])cc1)S(=O)(=O)c1cccc([N+](=O)[O-])c1 (stereo not given) [2-[(3-Nitro-benzenesulfonyl)-(4-nitro-benzyl)-amino]-propionic acid],5.26

row,SMILES,pKi
1,COc1ccc(S(=O)(=O)N(Cc2ccc([N+](=O)[O-])cc2)C(C)C(=O)O)cc1NC(=O)OC(C)(C)C (stereo not given) [2-[(3-tert-Butoxycarbonylamino-4-methoxy-benzenesulfonyl)-(4-nitro-benzyl)-amino]-propionic acid],5.68
2,CC(C(=O)O)N(Cc1ccc([N+](=O)[O-])cc1)S(=O)(=O)c1cccc(NC(=O)OC(C)(C)C)c1 (stereo not given) [2-[(3-tert-Butoxycarbonylamino-benzenesulfonyl)-(4-nitro-benzyl)-amino]-propionic acid],5.59
3,CC(=O)c1ccc(S(=O)(=O)N(Cc2ccc([N+](=O)[O-])cc2)C(C)C(=O)NO)cc1 (stereo not given) [2-[(4-Acetyl-benzenesulfonyl)-(4-nitro-benzyl)-amino]-N-hydroxy-propionamide],5.05
4,CC(=O)c1ccc(S(=O)(=O)N(Cc2ccc([N+](=O)[O-])cc2)C(C)C(=O)O)cc1 (stereo not given) [2-[(4-Acetyl-benzenesulfonyl)-(4-nitro-benzyl)-amino]-propionic acid],5.68
5,CC(=O)Nc1ccc(S(=O)(=O)N(Cc2ccc([N+](=O)[O-])cc2)C(C)C(=O)NO)cc1 (stereo not given) [2-[(4-Acetylamino-benzenesulfonyl)-(4-nitro-benzyl)-amino]-N-hydroxy-propionamide],4.96
6,CC(=O)Nc1ccc(S(=O)(=O)N(Cc2ccc([N+](=O)[O-])cc2)C(C)C(=O)O)cc1 (stereo not given) [2-[(4-Acetylamino-benzenesulfonyl)-(4-nitro-benzyl)-amino]-propionic acid],5.51
7,CC(C(=O)NO)N(Cc1ccc([N+](=O)[O-])cc1)S(=O)(=O)c1ccc(Br)cc1 (stereo not given) [2-[(4-Bromo-benzenesulfonyl)-(4-nitro-benzyl)-amino]-N-hydroxy-propionamide],4.52
8,CC(C(=O)O)N(Cc1ccc([N+](=O)[O-])cc1)S(=O)(=O)c1ccc(Br)cc1 (stereo not given) [2-[(4-Bromo-benzenesulfonyl)-(4-nitro-benzyl)-amino]-propionic acid],5.00
9,CC(C(=O)NO)N(Cc1ccc([N+](=O)[O-])cc1)S(=O)(=O)c1ccc(Cl)cc1 (stereo not given) [2-[(4-Chloro-benzenesulfonyl)-(4-nitro-benzyl)-amino]-N-hydroxy-propionamide],4.49
10,CC(C(=O)O)N(Cc1ccc([N+](=O)[O-])cc1)S(=O)(=O)c1ccc(Cl)cc1 (stereo not given) [2-[(4-Chloro-benzenesulfonyl)-(4-nitro-benzyl)-amino]-propionic acid],5.05
11,CC(C(=O)NO)N(Cc1ccc([N+](=O)[O-])cc1)S(=O)(=O)c1ccc(F)cc1 (stereo not given) [2-[(4-Fluoro-benzenesulfonyl)-(4-nitro-benzyl)-amino]-N-hydroxy-propionamide],4.46
12,CC(C(=O)O)N(Cc1ccc([N+](=O)[O-])cc1)S(=O)(=O)c1ccc(F)cc1 (stereo not given) [2-[(4-Fluoro-benzenesulfonyl)-(4-nitro-benzyl)-amino]-propionic acid],5.00
13,CC(C(=O)O)N(Cc1ccc([N+](=O)[O-])cc1)S(=O)(=O)c1ccc(I)cc1 (stereo not given) [2-[(4-Iodo-benzenesulfonyl)-(4-nitro-benzyl)-amino]-propionic acid],4.92
14,COc1ccc(S(=O)(=O)N(Cc2ccc([N+](=O)[O-])cc2)C(C)C(=O)O)cc1 (stereo not given) [2-[(4-Methoxy-benzenesulfonyl)-(4-nitro-benzyl)-amino]-propionic acid],5.28
15,CC(C(=O)O)N(Cc1ccc([N+](=O)[O-])cc1)S(=O)(=O)c1ccc([N+](=O)[O-])cc1 (stereo not given) [2-[(4-Nitro-benzenesulfonyl)-(4-nitro-benzyl)-amino]-propionic acid],5.28
16,"Cc1cc(C)c(S(=O)(=O)N(Cc2ccc([N+](=O)[O-])cc2)C(C)C(=O)O)c(C)c1 (stereo not given) [2-[(4-Nitro-benzyl)-(2,4,6-trimethyl-benzenesulfonyl)-amino]-propionic acid]",5.22
17,CC(C(=O)O)N(Cc1ccc([N+](=O)[O-])cc1)Sc1ccccc1[N+](=O)[O-] (stereo not given) [2-[(4-Nitro-benzyl)-(2-nitro-phenylsulfanyl)-amino]-propionic acid],5.20
18,CC(C(=O)O)N(Cc1ccc([N+](=O)[O-])cc1)S(=O)(=O)c1cccc(C(F)(F)F)c1 (stereo not given) [2-[(4-Nitro-benzyl)-(3-trifluoromethyl-benzenesulfonyl)-amino]-propionic acid],6.52
19,CC(C(=O)O)N(Cc1ccc([N+](=O)[O-])cc1)Sc1ccc([N+](=O)[O-])cc1 (stereo not given) [2-[(4-Nitro-benzyl)-(4-nitro-phenylsulfanyl)-amino]-propionic acid],5.26
20,CC(C(=O)O)N(Cc1ccc([N+](=O)[O-])cc1)S(=O)(=O)C(F)(F)C(F)(F)C(F)(F)C(F)(F)F (stereo not given) [2-[(4-Nitro-benzyl)-(nonafluorobutane-1-sulfonyl)-amino]-propionic acid],5.64
21,CC(C(=O)O)N(Cc1ccc([N+](=O)[O-])cc1)S(=O)(=O)c1cccc2cccnc12 (stereo not given) [2-[(4-Nitro-benzyl)-(quinoline-8-sulfonyl)-amino]-propionic acid],5.92
22,CC(C(=O)O)N(Cc1ccc([N+](=O)[O-])cc1)S(=O)(=O)c1cccs1 (stereo not given) [2-[(4-Nitro-benzyl)-(thiophene-2-sulfonyl)-amino]-propionic acid],5.68
